Source: patent publication US20010011081A1, “Pharmaceutical composition comprising L- carnitine or alkanoyl L-carnitine for the prevention and treatment of diseases brought about by lipid metabolism disorders” (Sigma-Tau Industrie Parmaceutiche Riunite S.p.A., priority 1995, published 2001)
Entries after “also recorded” stand apart in the source; their conditions may differ.

Assays:
[1] = tested on: experimentally obese rats; assay: Tests in experimentally obese rats on a lipogenic diet for fifteen days (food consumption, body weight, serum triglycerides, epididymal fat); format: in vivo, Wistar rats; details: for MEAN DAILY FOOD CONSUMPTION (g) PER ANIMAL After 15 days / MEAN DAILY FOOD CONSUMPTION (g) PER ANIMAL Before treatment / Epididimal fat AFTER 15 DAY-TREATMENT / Final body weight increase (g) AFTER 15 DAY-TREATMENT / SERUM Triglycerides AFTER 15 DAY-TREATMENT: lipogenic diet
Protocol: Male Wistar rats aged about 2 months were fed on a lipogenic diet (50% glucose, 20% casein, 4% cellulose, 5% salt mixture, 1% hazel nut oil, 18% starch, 1% vitamin mixture).
This diet was administered for fifteen days consecutively to different groups of rats, one of which served as a control group, whereas in the other groups the diet was administered together with calcium hydroxycitrate (1%-2%) or Garcinia cambogia extract (2%-4%) or L-carnitine (2%-4%) or acetyl L-carnitine or propionyl L-carnitine at the same doses, or together with various combinations of these products at the same doses. At the end of the fifteenth day of treatment, food consumption was evaluated in treated rats vs. controls and increases in body weight and in serum triglycerides and epididymal fat were measured.

[2] = tested on: fructose-induced hypertriglyceridaemia; assay: Experimental hypertriglyceridaemia test (oral fructose); format: in vivo, Wistar rats; details: for EXPERIMENTALLY-INDUCED HYPERTRIGYCERIDAEMIA (serum triglycerides): 5 days before and two hours after 3 g fructose
Protocol: In these tests, male Wistar rats serum triglyceride elevation was induced experimentally by means of the oral administration of fructose according to the method disclosed by L. A. V. Carlson (J. Atheroscler. Res. 8, 667, 1968; Atherosclerosis 16, 349, 1972). In the 5-day period prior to administration of 3 g of fructose, the rats, divided into groups, were treated with L-carnitine or its derivatives or with calcium hydroxycitrate or Garcinia cambogia extract at different doses, or with various combinations of these products.
The administration of these products was then repeated two hours after administration of fructose, and 5 hours later all animals were sacrificed. Triglyceride assay was then performed according to the method of R. K. Donabedian (Clin. Chem 20, 632, 1974).

[3] = tested on: atherosclerotic vascular lesions; assay: Experimental atherosclerosis test (atherogenic diet for six weeks); format: in vivo, Wistar rats
Description: Also in atherosclerotic vascular lesions induced experimenatlly according to the method of M. R. Malinow (Atherosclerosis 48, 105, 1983), with administration of an atherogenic diet (24% casein, 10% cotton oil, 5% salt, 60% sugar, 1% cholesterol, Vit D2 200 mUST/g of diet) for six weeks consecutively to different groups of male Wistar rats, it has been shown that the combination of carnitines plus calcium hydroxycitrate or Garcinia cambogia extract is capable of substantially potentiating the anti-atherogenic effect.
This was assessed by measuring the thickness of the abdominal aorta and the intensity of staining induced by Sudan IV using a scoring system from 1 to 5, according to degree of severity.

[4] = tested on: Wistar rats with hypercholesterolaemia induced by diet; assay: Experimental hypercholesterolaemia test (diet-induced, six weeks); format: in vivo; details: serum
Protocol: The results of tests conducted in Wistar rats with hypercholesterolaemia induced by diet according to the method described by C. […] Treatment both with L-carnitine and with calcium hydroxycitrate or with Garcinia cambogia extract, or with a combination of these products, was initiated together with a hypercholesterolaemia-inducing diet and continued for six weeks consecutively. At the end of this period, the assay was performed on the serum of the control animals and on that of the treated animals according to the method described by P. Roschlan (Clin. Chem. Clin. Biochem. 12, 403, 1975).

[5] = g 1/100 g diet, listed as calcium hydroxycitrate
[6] = g 2/100 g diet, listed as calcium hydroxycitrate
[7] = fifteen days of treatment on a lipogenic diet

Molecule | MEAN DAILY FOOD CONSUMPTION (g) PER ANIMAL After 15 days ([1]; g 2/100 g diet) [g] | MEAN DAILY FOOD CONSUMPTION (g) PER ANIMAL Before treatment ([1]; g 2/100 g diet) [g] | change in daily food consumption (in words) [1, 7] | Final body weight increase (g) AFTER 15 DAY-TREATMENT ([1]; g 2/100 g diet) [g] | SERUM Triglycerides AFTER 15 DAY-TREATMENT ([1]; g 2/100 g diet) [mg/100 ml] | EXPERIMENTALLY-INDUCED HYPERTRIGYCERIDAEMIA (serum triglycerides) ([2]; g 0.5/Kg) [mg/100 ml] | EXPERIMENTALLY-INDUCED HYPERTRIGYCERIDAEMIA (serum triglycerides) ([2]; g 1/Kg) [mg/100 ml] | severity of atherosclerotic lesions / anti-atherogenic effect (abdominal aorta thickness, Sudan IV staining score 1 to 5) [3] | EXPERIMENTALLY-INDUCED HYPERCHOLESTEROLEMIA, TOTAL CHOLESTEROL ([4]; g 2/100 g diet) [mg/dL] | MEAN DAILY FOOD CONSUMPTION (g) PER ANIMAL After 15 days ([1]; g 4/100 g diet) [g] | MEAN DAILY FOOD CONSUMPTION (g) PER ANIMAL Before treatment ([1]; g 4/100 g diet) [g] | Final body weight increase (g) AFTER 15 DAY-TREATMENT ([1]; g 4/100 g diet) [g] | SERUM Triglycerides AFTER 15 DAY-TREATMENT ([1]; g 4/100 g diet) [mg/100 ml] | EXPERIMENTALLY-INDUCED HYPERCHOLESTEROLEMIA, TOTAL CHOLESTEROL ([4]; g 4/100 g diet) [mg/dL] | other results
Calcium hydroxycitrate | 15.1 ± 0.46 | 18.8 ± 0.44 | substantial reduction | 38.9 ± 3.8 | 73.66 ± 7.1 | 170.6 ± 8.5 | 145.5 ± 8.5 | capable of reducing the severity of the atherosclerotic lesions | 180.5 ± 8.1 |  |  |  |  |  | MEAN DAILY FOOD CONSUMPTION (g) PER ANIMAL After 15 days ([1]; g 1/100 g diet): 17.1 ± 0.35 g; MEAN DAILY FOOD CONSUMPTION (g) PER ANIMAL After 15 days [1, 5]: 17.1 g; MEAN DAILY FOOD CONSUMPTION (g) PER ANIMAL After 15 days [1, 6]: 15.1 g; MEAN DAILY FOOD CONSUMPTION (g) PER ANIMAL Before treatment ([1]; g 1/100 g diet): 19.2 ± 0.65 g; MEAN DAILY FOOD CONSUMPTION (g) PER ANIMAL Before treatment [1, 5]: 19.2 g; MEAN DAILY FOOD CONSUMPTION (g) PER ANIMAL Before treatment [1, 6]: 18.8 g; body weight gain (in words) [1, 7]: reduced; Epididimal fat AFTER 15 DAY-TREATMENT ([1]; g 1/100 g diet): 3.91 ± 0.36 g; Final body weight increase (g) AFTER 15 DAY-TREATMENT ([1]; g 1/100 g diet): 46.6 ± 4.1 g; SERUM Triglycerides AFTER 15 DAY-TREATMENT ([1]; g 1/100 g diet): 76.84 ± 6.9 mg/100 ml; Epididimal fat AFTER 15 DAY-TREATMENT ([1]; g 2/100 g diet): 3.32 ± 0.39 g; fructose-induced hypertriglyceridaemia (in words) ([2]; rat, in vivo): reduced; EXPERIMENTALLY-INDUCED HYPERCHOLESTEROLEMIA, TOTAL CHOLESTEROL ([4]; g 1/100 g diet): 196.6 ± 9.6 mg/dL; total cholesterol values (in words) [4]: fair degree of lowering
C[N+](C)(C)C[C@H](O)CC(=O)[O-] [L-carnitine] |  | 17.3 ± 0.35 | No changes compared to controls; also recorded: non-significant changes | 66.2 ± 4.9 | 92.55 ± 7.7 | 190.4 ± 9.6 | 190.8 ± 8.6 | capable of reducing the severity of the atherosclerotic lesions | 270.4 ± 5.1 | 17.8 ± 0.41 | 18.4 ± 0.61 | 64.5 ± 5.1 | 90.44 ± 6.8 | 260.6 ± 4.4 | 
CCC(=O)O[C@H](CC(=O)[O-])C[N+](C)(C)C [Propionyl L-carnitine] | 17.1 ± 0.38 | 17.7 ± 0.56 | No changes compared to controls; also recorded: non-significant changes | 62.4 ± 3.9 | 88.4 ± 8.16 | 184.2 ± 6.8 | 180.4 ± 7.9 |  | 250.6 ± 10.1 | 18.5 ± 0.48 | 18.2 ± 0.44 | 58.7 ± 3.7 | 82.7 ± 6.6 | 235.3 ± 9.6 | Epididimal fat AFTER 15 DAY-TREATMENT ([1]; g 4/100 g diet): 4.0 ± 5.6 g
CC(=O)O[C@H](CC(=O)[O-])C[N+](C)(C)C [Acetyl L-carnitine] | 18.4 ± 0.44 | 18.6 ± 0.39 | No changes compared to controls; also recorded: non-significant changes | 60.4 ± 7.1 | 95.81 ± 8.2 | 191.2 ± 9.1 | 188.4 ± 5.5 |  | 266.7 ± 7.7 | 18.8 ± 0.57 | 18.2 ± 0.41 | 60.1 ± 6.1 | 90.8 ± 7.5 | 255.4 ± 9.4 | 
